Structures can show the parent of a compound that is named as a salt.
test system: Toxoplasma gondii RH-2F tachyzoites; assay: microbe, parasite or virus in culture; conditions: 72 h, read-out: Parasite inhibition (%) mean

Row | Compound | inhibition of growth at 5 µM [%]
1 | C/C=C(\C)C(=O)N[C@@H](c1ccccc1)[C@@H](O)C(=O)O[C@H]1C[C@@]2(O)[C@@H](OC(=O)c3ccccc3)[C@@H]3[C@]4(OC(C)=O)CO[C@@H]4C[C@H](O)[C@@]3(C)C(=O)[C@H](OC(C)=O)C(=C1C)C2(C)C [Cephalomannine] | 22.4
2 | O[C@@H](COc1cccc2ncccc12)CN1CCN([C@@H]2c3ccccc3[C@@H]3[C@H](c4ccccc42)C3(F)F)CC1 [LY335979 (Zosuquidar 3HCl)] | -7.9

same assay, conditions: 72 h, read-out: Parasite inhibition (%) mean, preliminary screen of compound library, mean

Row | Compound | inhibition of growth at 5 µM [%]
3 | CCCCc1oc2ccc(NS(C)(=O)=O)cc2c1C(=O)c1ccc(OCCCN(CCCC)CCCC)cc1 [Dronedarone HCl (Multaq)] | 2.5
4 | Cc1cnc(NC(=O)Nc2cc(Br)c(C)cc2OC[C@@H]2CNCCO2)cn1 [LY2603618 (IC-83)] | 22.7
5 | Cc1cccc(-c2nn3c(c2-c2ccnc4ccc(C(N)=O)cc24)CCC3)n1 [LY2157299] | 5.2
6 | O=C(O)C(O)Cc1ccc(O)c(O)c1 (stereo not drawn) [Sodium Danshensu] | 2.2
7 | Cn1c(CNc2ccc(C(=N)N)cc2)nc2cc(C(=O)N(CCC(=O)O)c3ccccn3)ccc21 [BIBR 953 (Dabigatran etexilate, Pradaxa)] | 0.3
8 | CCCCCCCCOc1ccccc1C(=O)Nc1ccc(C(=O)OCC[N+](C)(CC)CC)cc1 [Otilonium Bromide] | 0.7
9 | OC[C@@H](O)[C@@H](O)[C@H](O)[C@@H](O)CO [Sorbitol (Glucitol)] | -66.9
10 | N[C@@H](CC(=O)N1CCn2c(nnc2C(F)(F)F)C1)Cc1cc(F)c(F)cc1F [Sitagliptin phosphate monohydrate] | 1.1
11 | C[C@@H](O[C@H]1OCCN(Cc2nn(P(=O)(O)O)c(=O)[nH]2)[C@H]1c1ccc(F)cc1)c1cc(C(F)(F)F)cc(C(F)(F)F)c1 [Fosaprepitant dimeglumine] | -2.8
12 | C[C@@H](C(=O)O)c1ccc(-c2ccccc2)c(F)c1 [Flurbiprofen (Ansaid)] | -23.7
13 | O=S(=O)(c1ccccc1)c1cnc2c(N3CCNCC3)cccc2c1 [SB-742457] | 0.6
14 | CC(C)c1nc(N(C)S(C)(=O)=O)nc(-c2ccc(F)cc2)c1/C=C/[C@@H](O)C[C@@H](O)CC(=O)O [Rosuvastatin calcium (Crestor)] | -0.1
15 | CC(C)c1nc(CN(C)C(=O)N[C@@H](CCN2CCOCC2)C(=O)N[C@H](CC[C@H](Cc2ccccc2)NC(=O)OCc2cncs2)Cc2ccccc2)cs1 [Cobicistat (GS-9350)] | 0.8
16 | COc1ccc(NS(=O)(=O)c2sc3ccc(Cl)cc3c2C)cc1N1CCNCC1 [SB 271046] | -0.6
17 | CC1(C)CC(=O)c2c(C(F)(F)F)nn(-c3ccc(C(N)=O)c(N[C@H]4CC[C@H](O)CC4)c3)c2C1 [SNX-2112] | 9.9
18 | COc1ccc2[nH]c([S+]([O-])Cc3ncc(C)c(OC)c3C)nc2c1 (stereo not drawn) [Esomeprazole sodium (Nexium)] | 14.2
19 | O=C1c2ccccc2C(=O)C1c1ccccc1 [Phenindione (Rectadione)] | -1.7
20 | C[C@H]1CCN(C(=O)CC#N)C[C@@H]1N(C)c1ncnc2[nH]ccc12 [Tofacitinib (CP-690550, Tasocitinib)] | 11.2
21 | CC(C)(CO)c1cc2cc(NC(=O)C3(c4ccc5c(c4)OC(F)(F)O5)CC3)c(F)cc2n1C[C@@H](O)CO [VX-661] | 0.6
22 | O=C(O)CCCCC(CCSCc1ccccc1)SCc1ccccc1 (stereo not drawn) [CPI-613] | 31.1
23 | CO[C@H]1C(=O)[C@@]2(C)[C@H]([C@@H](OC(=O)c3ccccc3)[C@@]3(O)C[C@H](OC(=O)[C@H](O)[C@@H](NC(=O)OC(C)(C)C)c4ccccc4)C(C)=C1C3(C)C)[C@]1(OC(C)=O)CO[C@@H]1C[C@H]2OC [Cabazitaxel (Jevtana)] | 2.3

Row | Compound | inhibition of growth at 5 µM [%]
24 | CN1C2=CC(=O)/C(=N\NC(N)=O)C=C2CC1S(=O)(=O)O (stereo not drawn) [Carbazochrome sodium sulfonate] | 1.2
25 | CC(C)N(CCNC(=O)CN1CCCC1=O)C(C)C [Pramiracetam] | 24.1
26 | CCC(=O)N1CCN(c2ccc(-n3c(=O)ccc4cnc5ccc(-c6cnc7ccccc7c6)cc5c43)cc2C(F)(F)F)CC1 [Torin 1] | 17.8
27 | CNCC(=O)c1ccc(O)c(O)c1 [Adrenalone HCl] | 17.8
28 | COc1cc(C(C)=O)ccc1OCCCN1CCC(c2noc3cc(F)ccc23)CC1 [Iloperidone (Fanapt)] | 37.8
29 | N#C[C@@H]1CCCN1C(=O)CNC12CC3CC(CC(O)(C3)C1)C2 [Vildagliptin (LAF-237)] | -11.7
30 | CO/N=C(\C(=O)N[C@@H]1C(=O)N2C(C(=O)O)=C(Cn3ccc(=N)n3CCO)CS[C@H]12)c1csc(N)n1 [Cefoselis sulfate] | 12.1
31 | CC1(C)[C@@H](O[C@H]2O[C@H](C(=O)O)[C@@H](O)[C@H](O)[C@@H]2O[C@@H]2O[C@H](C(=O)O)[C@@H](O)[C@H](O)[C@H]2O)CC[C@@]2(C)[C@H]3C(=O)C=C4[C@@H]5C[C@@](C)(C(=O)O)CC[C@]5(C)CC[C@@]4(C)[C@]3(C)CC[C@@H]12 [Ammonium Glycyrrhizinate (AMGZ)] | 0.1
32 | CCOC(=O)c1ccc(C#Cc2ccc3c(c2)C(C)(C)CCS3)nc1 [Tazarotene (Avage)] | -0.7
33 | O=C1NC(=O)/C(=C/c2ccc3c(c2)OC(F)(F)O3)S1 [AS-604850] | 0.8
34 | Oc1ccc([C@H]2COc3cc(O)ccc3C2)cc1 [Equol] | -5.6
35 | CN(C)[C@@H]1C(O)=C(C(N)=O)C(=O)[C@@]2(O)C(=O)C3=C(O)c4c(O)cccc4[C@@](C)(O)[C@H]3[C@H](O)[C@@H]12 [Oxytetracycline (Terramycin)] | 33.5
36 | COC(=O)C1=C(C)NC(C)=C(C(=O)OCCN2CCN(C(c3ccccc3)c3ccccc3)CC2)C1c1cccc([N+](=O)[O-])c1 (stereo not drawn) [Manidipine (Manyper)] | 1.1
37 | Fc1cc(-c2cccc3ncc(-c4cnn(C5CCNCC5)c4)nc23)cc(F)c1CN1CCOCC1 [NVP-BSK805 2HCl] | 14.6
38 | CNC(=O)c1cc(Oc2ccc(NC(=O)Nc3cc(C(C)(C)C)nn3-c3ccc4ncccc4c3)c(F)c2)ccn1 [DCC-2036 (Rebastinib)] | 25.5
39 | C[C@H]1CNCCc2ccc(Cl)cc21 [Lorcaserin HCl] | 34.8
40 | O=C(O)c1ccc(-n2nc(-c3ccccc3O)nc2-c2ccccc2O)cc1 [Deferasirox (Exjade)] | -0.6
41 | CC(C)[C@H](N)C(=O)OCCOCn1cnc2c(=O)[nH]c(N)nc21 [Valaciclovir HCl] | 0.1
42 | O=C(NCC1CCOCC1)c1cnc(Nc2ccc(Cl)cc2Cl)nc1C(F)(F)F [GW842166X] | -12
43 | Cc1cc(C)c(/C=C2\C(=O)Nc3ccccc32)[nH]1 [Semaxanib (SU5416)] | -78.8
44 | COC(=O)CCSCc1ccc(-c2onc(C)c2NC(=O)OC(C)c2ccccc2Cl)cc1 (stereo not drawn) [Ki16198] | 1.4

same assay, conditions: 72 h, read-out: Parasite inhibition (%) mean, preliminary screen, mean

Row | Compound | inhibition of growth at 5 µM [%]
45 | O=C(NC[C@H](O)CO)c1ccncc1Nc1ccc(I)cc1F [AS703026 (pimasertib)] | -20.8
46 | Cc1cccc(Cc2c[nH]cn2)c1C [Detomidine HCl] | 60.4
47 | C[C@@H](Oc1cc(-n2cnc3ccc(CN4CCN(C)CC4)cc32)sc1C(N)=O)c1ccccc1C(F)(F)F [GSK461364] | 6.6
48 | Nc1ccn([C@@H]2O[C@H](CO)[C@@H](O)C2(F)F)c(=O)n1 [Gemcitabine (Gemzar)] | 0.1
49 | CC(C)(C)C(=O)OCOP(=O)(COCCn1cnc2c(N)ncnc21)OCOC(=O)C(C)(C)C [Adefovir Dipivoxil (Preveon, Hepsera)] | 0
50 | Nc1nc(N)c2nc(-c3cccc(O)c3)c(-c3cccc(O)c3)nc2n1 [TG100-115] | 9.5
51 | CCCCCCOC(=O)/N=C(/N)c1ccc(NCc2nc3cc(C(=O)N(CCC(=O)OCC)c4ccccn4)ccc3n2C)cc1 | 1.2
52 | CCOC(=O)[C@H](CCc1ccccc1)N[C@@H](C)C(=O)N1Cc2cc(OC)c(OC)cc2C[C@H]1C(=O)O [Moexipril HCl] | 35.3
53 | CCOc1cc2ncc(C#N)c(Nc3ccc(F)c(Cl)c3)c2cc1NC(=O)/C=C/CN(C)C [Pelitinib (EKB-569)] | -28.8
54 | CCC(=O)O[C@@H](OP(=O)(CCCCc1ccccc1)CC(=O)N1C[C@H](C2CCCCC2)C[C@H]1C(=O)O)C(C)C (stereo partly drawn) [Fosinopril sodium (Monopril)] | 21.3
55 | CCN(C)C(=O)Oc1cccc([C@H](C)N(C)C)c1 [Rivastigmine tartrate (Exelon)] | 22.8
56 | c1cnc2cc3c(cc2n1)C1CNCC3C1 [Varenicline tartrate] | 0
57 | COc1ccc(-n2nc(C(N)=O)c3c2C(=O)N(c2ccc(N4CCCCC4=O)cc2)CC3)cc1 [Apixaban] | 2
58 | CN(NC(=O)CC(=O)NN(C)C(=S)c1ccccc1)C(=S)c1ccccc1 [Elesclomol] | 0.9
59 | CC(C)c1cc(C(C)C)c(CC(=O)NS(=O)(=O)Oc2c(C(C)C)cccc2C(C)C)c(C(C)C)c1 [Avasimibe (CI-1011)] | 5.1
60 | CS(=O)(=O)CCNCc1ccc(-c2ccc3ncnc(Nc4ccc(OCc5cccc(F)c5)c(Cl)c4)c3c2)o1 [Lapatinib Ditosylate (Tykerb)] | 3.3
61 | C=CCn1c(=O)c2cnc(Nc3ccc(N4CCN(C)CC4)cc3)nc2n1-c1cccc(C(C)(C)O)n1 [MK-1775] | 0
62 | Cc1ccc2c(=O)c3cccc(CC(=O)O)c3oc2c1C [DMXAA (ASA404)] | -33.6
63 | CN(C)CCN1C(=O)c2cccc3cc(N)cc(c23)C1=O [Amonafide] | -3.3
64 | CN(C)CCc1c[nH]c2ccc(CS(=O)(=O)N3CCCC3)cc12 [Almotriptan malate (Axert)] | 2
65 | COc1ccccc1S(=O)(=O)Nc1ccc2c(c1)CN(C)C(=O)N2 [PFI-1] | 2.2
66 | C[C@]1(c2nc3c(C(N)=O)cccc3[nH]2)CCCN1 [ABT-888 (Veliparib)] | 50.5

— article PMC7216583 (Parasites & Vectors, 2020)
